In ChEMBL document CHEMBL1148587, “Imidazo[1,2-a]pyrimidines as functionally selective and orally bioavailable GABA(A)alpha2/alpha3 binding site agonists for the treatment of anxiety disorders” (J Med Chem, 2006):
Active and inactive are the calls of the source. The calls are words filed in the database; no cut-off is given here.

How the values were obtained:
[1] = target: GABA-A receptor; alpha-1/beta-3/gamma-2 (Homo sapiens) (UniProt P14867+P18507+P28472); assay: Efficacy against human recombinant GABAA alpha-1 in combination with beta3gamma2 expressed in L(tk-) cells by whole cell patch clamp method; format: functional, cell-based
[2] = target: GABA-A receptor; anion channel (Rattus norvegicus) (UniProt O09028+P15431+P18506+P18508+P19969+P20236+P23574+P23576+P28471+P28473+P30191+P62813+P63079+P63138+Q91ZM7+Q9ES14); assay: (§1) Displacement of [3H]Ro-151788 from central benzodiazepine binding site in rat administered po; format: functional
[3] = target: GABA-A receptor; anion channel; assay: as §1; format: functional
[4] = Half life in dog; format: ADME, organism-based, Canis lupus familiaris; conditions: in vivo
[5] = target: GABA-A receptor; alpha-3/beta-3/gamma-2 (Homo sapiens) (UniProt P18507+P28472+P34903); assay: Efficacy against human recombinant GABAA alpha3 in combination with beta-3-gamma-2 expressed in L(tk-) cells by whole cell patch clamp method; format: functional, cell-based
[6] = Plasma clearance in rat; format: ADME, organism-based
[7] = target: T1, GABA-A receptor; alpha-1/beta-3/gamma-2 (Homo sapiens, UniProt P14867+P18507+P28472); assay: Displacement of [3H]-Ro15-1788 from human recombinant GABAA alpha1 in combination with beta-3-gamma-2 expressed in L(tk-) cells; format: cell-based
T1 sequence (P14867 whole entry): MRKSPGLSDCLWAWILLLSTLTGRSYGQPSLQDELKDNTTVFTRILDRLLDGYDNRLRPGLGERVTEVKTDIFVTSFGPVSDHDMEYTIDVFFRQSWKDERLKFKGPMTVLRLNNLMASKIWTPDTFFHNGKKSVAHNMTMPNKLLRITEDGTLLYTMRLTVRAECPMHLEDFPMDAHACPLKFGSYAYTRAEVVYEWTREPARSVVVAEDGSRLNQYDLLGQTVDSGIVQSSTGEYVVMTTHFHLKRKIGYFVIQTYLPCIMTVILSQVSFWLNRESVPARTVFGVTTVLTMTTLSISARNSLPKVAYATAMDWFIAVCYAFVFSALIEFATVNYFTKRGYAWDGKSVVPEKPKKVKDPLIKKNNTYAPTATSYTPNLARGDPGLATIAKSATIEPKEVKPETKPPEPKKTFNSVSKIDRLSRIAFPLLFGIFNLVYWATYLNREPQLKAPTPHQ
T1 sequence (P18507 whole entry): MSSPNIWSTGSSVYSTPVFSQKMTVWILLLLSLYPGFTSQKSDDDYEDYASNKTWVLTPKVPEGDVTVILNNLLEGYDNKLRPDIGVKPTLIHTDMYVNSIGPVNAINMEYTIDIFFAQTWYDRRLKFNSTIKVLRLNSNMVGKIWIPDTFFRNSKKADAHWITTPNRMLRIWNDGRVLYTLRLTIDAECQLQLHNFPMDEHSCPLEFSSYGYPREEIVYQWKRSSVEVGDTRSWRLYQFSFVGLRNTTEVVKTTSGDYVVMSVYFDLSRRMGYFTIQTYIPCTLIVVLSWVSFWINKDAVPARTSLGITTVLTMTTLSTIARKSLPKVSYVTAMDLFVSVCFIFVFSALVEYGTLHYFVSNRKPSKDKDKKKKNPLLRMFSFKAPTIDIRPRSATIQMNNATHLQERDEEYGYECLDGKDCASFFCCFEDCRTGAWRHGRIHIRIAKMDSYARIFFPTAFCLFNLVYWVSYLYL
T1 sequence (P28472 whole entry): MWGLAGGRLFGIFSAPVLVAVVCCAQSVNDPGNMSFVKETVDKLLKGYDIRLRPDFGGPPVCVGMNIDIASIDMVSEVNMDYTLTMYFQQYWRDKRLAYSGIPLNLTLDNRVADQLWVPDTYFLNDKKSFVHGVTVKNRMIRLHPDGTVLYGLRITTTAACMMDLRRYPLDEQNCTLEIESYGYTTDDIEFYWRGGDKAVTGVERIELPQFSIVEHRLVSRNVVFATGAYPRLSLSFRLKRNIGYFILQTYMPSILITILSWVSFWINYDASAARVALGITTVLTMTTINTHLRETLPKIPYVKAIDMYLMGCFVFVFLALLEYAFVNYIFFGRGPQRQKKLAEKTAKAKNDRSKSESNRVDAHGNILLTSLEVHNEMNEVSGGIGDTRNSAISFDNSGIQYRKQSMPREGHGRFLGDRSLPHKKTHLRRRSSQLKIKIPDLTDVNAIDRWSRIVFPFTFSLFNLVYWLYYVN

[8] = target: T2, GABA-A receptor; alpha-2/beta-3/gamma-2 (Homo sapiens, UniProt P18507+P28472+P47869); assay: Displacement of [3H]-Ro15-1788 from human recombinant GABAA alpha2 in combination with beta3gamma2 expressed in L(tk-) cells; format: cell-based
T2 sequence (P18507 whole entry): T1 sequence (P18507 whole entry)
T2 sequence (P28472 whole entry): T1 sequence (P28472 whole entry)
T2 sequence (P47869 whole entry): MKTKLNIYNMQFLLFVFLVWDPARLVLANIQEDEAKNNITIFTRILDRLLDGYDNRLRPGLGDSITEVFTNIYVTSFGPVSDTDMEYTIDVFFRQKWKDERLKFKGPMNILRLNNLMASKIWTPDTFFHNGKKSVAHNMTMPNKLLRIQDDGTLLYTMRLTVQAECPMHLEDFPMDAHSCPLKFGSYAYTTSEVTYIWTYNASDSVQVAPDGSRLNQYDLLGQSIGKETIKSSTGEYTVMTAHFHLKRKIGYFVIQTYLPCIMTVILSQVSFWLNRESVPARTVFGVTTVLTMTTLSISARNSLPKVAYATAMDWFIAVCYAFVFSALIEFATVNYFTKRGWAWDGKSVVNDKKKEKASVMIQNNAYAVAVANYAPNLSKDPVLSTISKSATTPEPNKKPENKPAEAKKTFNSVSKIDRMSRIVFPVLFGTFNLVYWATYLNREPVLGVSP

Rattus norvegicus = assay: Effect on activity impairment in rat chain pulling assay at 30 mg/kg, po; format: functional, organism-based; set-up: dose 30 mg/kg
Squirrel monkey = assay: Anxiolytic activity in squirrel monkey conditioned emotional response test at 3 mg/kg, po; format: functional, organism-based; set-up: dose 3 mg/kg; conditions: Saimiri sciureus
[9] = Oral bioavailability in rat; format: ADME, organism-based; conditions: in vivo
[10] = Half life in rat; format: ADME, organism-based; conditions: in vivo

Efficacy [1] | ID50 [2] | EC50 [3] | half-life [4] | Efficacy [5] | clearance [6] | Ki [7] | Ki [8] | bioavailability [9] | half-life [10] | SMILES | Activity (Rattus norvegicus) | Activity (Squirrel monkey)
-2% | 0.27 mg/kg | 19 nM | 32 h | 25% | 10.3 mL/min/kg | 1.2 nM | 1 nM | 53% | 7.3 h | N#Cc1cc(F)ccc1-c1cc(-c2cnc3nc(C(F)(F)F)ccn23)ccc1F | inactive | Active
6.2% | 0.84 mg/kg | 580 nM | 0.7 h | 57% | 9.1 mL/min/kg | 0.85 nM | 3.7 nM | 77% | 1.7 h | CC(C)(O)c1ccn2c(-c3ccc(F)c(-c4cccnc4)c3)cnc2n1 | inactive | Active
